Source: PubChem BioAssay (NCI)
Several values for one entry are separate records, joined by “and”; a condition that tells them apart may be missing. Equal entries are not always repeated.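 Results reflect a 48-hour exposure of cells in 96-well plates to compound at five concentrations. GI50 = concentration required for 50% inhibition of growth. TGI marks complete inhibition of growth.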

Experiments:
Assay in all cases: inhibition of tumour cell growth, NCI panel, 48 h
A549 NSCLC = system: A549 NSCLC
SNB-19 CNS = system: SNB-19 CNS
CCRF-CEM leukemia = system: CCRF-CEM leukemia
SK-MEL-5 melanoma = system: SK-MEL-5 melanoma
KM12 colon = system: KM12 colon
SK-MEL-2 melanoma = system: SK-MEL-2 melanoma
HCC-2998 colon = system: HCC-2998 colon
SK-MEL-28 melanoma = system: SK-MEL-28 melanoma
MCF7 breast = system: MCF7 breast
MDA-MB-435 = system: MDA-MB-435

SMILES | TGI (A549 NSCLC) | TGI (SNB-19 CNS) [µM] | TGI (CCRF-CEM leukemia) | TGI (SK-MEL-5 melanoma) | TGI (KM12 colon) | TGI (SK-MEL-2 melanoma) | TGI (HCC-2998 colon) [µM] | TGI (SK-MEL-28 melanoma) | TGI (MCF7 breast) | TGI (MDA-MB-435) | GI50 (SK-MEL-2 melanoma) | GI50 (A549 NSCLC) | GI50 (CCRF-CEM leukemia) [µM] | GI50 (SK-MEL-5 melanoma) | GI50 (SK-MEL-28 melanoma) [µM] | GI50 (MDA-MB-435) [µM] | GI50 (HCC-2998 colon) [µM] | GI50 (SNB-19 CNS) [µM] | GI50 (MCF7 breast) [µM] | GI50 (KM12 colon) [µM]
COc1cc2c(cc1OC)C1C=NC(C(=O)O)(C2)c2ccccc21 (centres undefined) | > 100 µM | > 100 | > 100 µM | > 100 µM | > 100 µM |  |  |  |  |  |  |  |  |  |  |  |  |  |  | 
OCc1c(-c2cccc3ccccc23)sc(-c2cccc3ccccc23)c1CO |  | 25.4 | 46.5 µM | 23.6 µM | 26.4 µM | 28.2 µM | 33.9 | 23.3 µM |  |  |  |  |  |  |  |  |  |  |  | 
O=C1CCC(NC(=O)c2ccccc2)C(=O)N1 (centres undefined) | > 100 µM | > 100 |  | > 100 µM | > 100 µM | > 100 µM | > 100 | > 100 µM | > 100 µM | > 100 µM |  |  |  |  |  |  |  |  |  | 
O=C(O)CCCc1ccc(N(CCCl)CCCl)cc1 | > 92.2 µM and 633 µM and 621 µM |  | 34.2 µM and 170 µM and 18.6 µM | 39.5 µM and 210 µM and 225 µM | 57.8 µM and 351 µM and 485 µM | 52 µM and 314 µM and 344 µM |  | 42.1 µM and 267 µM | 379 µM and 431 µM | 270 µM and 242 µM | 31.8 µM and 270 µM | 12.7 µM and > 89.5 µM | 0.881 | 20.3 µM and 110 µM | 21.5 | 173 |  |  |  | 
O=[N+]([O-])c1ccc(NSc2ccccc2)cc1 | > 100 µM | > 100 | > 100 µM | > 100 µM | > 100 µM | > 100 µM | > 100 | > 100 µM |  |  |  |  |  |  |  |  |  |  |  | 
Cc1nc2nnc(C)n2c2c1C(=O)Nc1ccccc1N2 | > 100 µM | > 100 | > 100 µM |  | > 100 µM | > 100 µM | > 100 | > 100 µM |  |  |  |  |  |  |  |  |  |  |  | 
O=S(=O)(O)C(O)/C=C/c1ccccc1 (centres undefined) | > 100 µM | > 100 | > 100 µM | > 100 µM | > 100 µM | > 100 µM | > 100 | > 100 µM |  |  |  |  |  |  |  |  |  |  |  | 
Cc1cccc2c3ccc4c(c3n(C)c12)C(=O)C=CC4=O | > 100 µM | > 100 | 61.2 µM |  | > 100 µM | > 100 µM | > 100 | > 100 µM |  |  |  |  |  |  |  |  |  |  |  | 
CCCCCCCCCCCCOC1C(CNCC2OC3OC(C)(C)OC3C2NC(=O)Nc2ccc(C(=O)OCC)cc2)OC2OC(C)(C)OC21 (centres undefined) | 4.76 µM | 27.7 |  | 4.13 µM | 3.69 µM | 29.7 µM | 3.23 | 4.3 µM | 2.92 µM | 3.8 µM | 13.4 µM | 2.23 µM |  | 2.05 µM | 1.97 | 1.9 | 1.8 | 13.7 | 1.35 | 1.96
O=C(O)/C=C/C(=O)Nc1ncn[nH]1 | > 100 µM | > 100 |  | > 100 µM | > 100 µM | > 100 µM | > 100 | > 100 µM | > 100 µM | > 100 µM |  |  |  |  |  |  |  |  |  | 
CN1CCCNCCN(CCc2ccccn2)CCCN(C)CC1 | > 100 µM | > 100 | > 60 µM | > 100 µM | > 100 µM | > 100 µM | > 100 | > 100 µM |  |  |  |  |  |  |  |  |  |  |  | 
COC(=O)c1c2c(c(C)[n+]([O-])c1C)C(=O)C=CC2=O | 11.6 µM | 3.31 | 7.3 µM | 2.41 µM | 4.77 µM | 3.99 µM | 3.13 | 3.6 µM |  | 3.31 µM | 1.89 µM | 3.12 µM | 0.0559 | 1.14 µM | 1.96 | 1.79 | 1.64 | 1.67 |  | 1.99
S=C1NCCN1C1=Nc2ccccc2CO1 | > 100 µM | > 100 | > 100 µM | 99.4 µM | > 100 µM |  | > 100 | > 100 µM | > 100 µM | > 100 µM |  | > 100 µM | > 100 | 41.7 µM | > 100 | > 100 | > 100 | > 100 | > 100 | > 100
COc1cccc(-c2nc(-c3cnccn3)n(Cc3ccccc3)n2)c1 | > 100 µM | > 100 | > 100 µM | > 100 µM | > 100 µM |  | > 100 | > 100 µM | > 100 µM | > 100 µM |  |  |  |  |  |  |  |  |  | 
C[C@]12CCC(=O)C=C1CC[C@@H]1C2CC[C@]2(C)NC(=O)C(C#N)CC12 (some centres undefined) | > 100 µM |  | > 100 µM | > 100 µM |  | > 100 µM | > 100 | > 100 µM |  |  |  |  |  |  |  |  |  |  |  | 
Cc1c(C(=O)/C=C/c2cccc3ccccc23)[n+](=O)c2ccccc2n1[O-] | 35 µM | 29.7 | 16.8 µM |  | 27.1 µM |  | 30.8 | 26.6 µM |  |  |  |  |  |  |  |  |  |  |  | 
COc1ccc(/C=C(/C(=O)O)c2cc(OC)c(OC)c(OC)c2)cc1 | > 100 µM | > 100 | > 100 µM | > 100 µM | > 100 µM | > 100 µM | > 100 | > 100 µM |  |  |  |  |  |  |  |  |  |  |  | 
CC1=CCCC(OC(N)=O)C1 (centres undefined) | > 100 µM | > 100 | > 100 µM | > 100 µM | > 100 µM | > 100 µM | > 100 |  |  |  |  |  |  |  |  |  |  |  |  | 
C/C(=N\NC(N)=S)c1ccc(C)cc1C | > 100 µM |  | > 100 µM | > 100 µM | > 100 µM | > 100 µM | > 100 |  |  |  |  |  |  |  |  |  |  |  |  | 
OCCNCO | > 100 µM | > 100 | > 100 µM | > 100 µM | > 100 µM | > 100 µM |  | > 100 µM |  |  |  |  |  |  |  |  |  |  |  | 
CNC(=O)c1cc(Oc2ccc3c(c2)sc2nc(-c4ccc(N)cc4)cn23)ccn1 | > 100 µM | > 100 | > 100 µM | 11.5 µM | > 100 µM | > 100 µM | > 50.5 | > 100 µM | > 100 µM |  | 0.332 µM | 0.474 µM | 0.2 | 0.222 µM | 4.99 |  | 0.537 | 0.405 | 0.128 | 0.196
C1CN2N3CCCC23C1 (centres undefined) | > 100 µM | > 100 | > 100 µM | > 100 µM | > 100 µM | > 100 µM | > 100 | > 100 µM |  |  |  |  |  |  |  |  |  |  |  | 
O=C1CC[C@H]2CNC(=O)C[C@H]2C1 | > 100 µM | > 100 | > 100 µM | > 100 µM | > 100 µM | > 100 µM | > 100 | > 100 µM |  |  |  |  |  |  |  |  |  |  |  | 
